# Measured values from publication PMC4279137 (Pharmaceutics, 2014).
# Read-outs that look alike come from different tables or passages of the source.
# What was measured:
# [1] = molecular target: T1, OATP1B3 (Homo sapiens, UniProt Q9NPD5); design: method as in PMID 23219525; conditions: HEK-OATP1B3 cells; read-out: IC50 OATP1B3 inhibition, control compound; cited from earlier work
# T1 construct: expressed in transfected cells; host or cells: HEK293 (HEK-OATP1B3)
# [2] = molecular target: T2, OATP1B1 (Homo sapiens, UniProt Q9Y6L6); design: method as in PMID 23219525; conditions: HEK-OATP1B1 cells; read-out: IC50 OATP1B1 inhibition, control compound; cited from earlier work
# T2 construct: expressed in transfected cells; host or cells: HEK293 (HEK-OATP1B1)
# [3] = molecular target: T3, BCRP (Homo sapiens, UniProt Q9UNQ0); design: method as in PMID 20222053; conditions: MDCKII-BCRP cells; read-out: IC50 BCRP inhibition, control compound; cited from earlier work
# T3 construct: expressed in transfected cells; host or cells: MDCKII-BCRP (Madin-Darby canine kidney cells)
# [4] = test system: P-gp; assay: Western blot analysis of P-gp expression in LS180 cells; format: cell-based, human; conditions: four days
# Description: (§1) The human colon adenocarcinoma cell line LS180 (available at ATCC, Manassas, VA, USA) was used for induction experiments as a surrogate for the intestine being a major site of drug interactions and being an ideal model for investigating PXR and AhR mediated induction. Cells were cultured as described previously. For the induction experiments, LS180 cells were seeded in 75 cm^2 culturing flasks and incubated for three days. […] Rifampicin (20 µM) served as a positive control and culture medium with 0.02% DMSO as a negative control. For induction of CYP1A1 and CYP1A2, 5 nM TCDD was used as a positive control. All incubation solutions were adjusted to 0.02% DMSO. After harvesting, cells were splitted for RNA and protein extraction.
# [5] = molecular target: T2, OATP1B1; assay: OATP inhibition assay (8-FcA flow cytometry uptake assay) in HEK-OATP1B1 cells; format: cell-based; conditions: 8-fluorescein-cAMP uptake
# Description: (§2) For assessing human organic antion transporting polypeptides (OATPs = solute carriers of organic anions (SLCOs)) inhibition, the human embryonic kidney cell line HEK293 stably transfected with OATP1B1 (HEK-OATP1B1), OATP1B3 (HEK-OATP1B3), or the empty control vector (HEK293-VC G418) were used. Cells were cultured under standard cell culture conditions with DMEM supplemented with 10% FCS, 2 mM glutamine, 100 U/mL penicillin, 100 µg/mL streptomycin sulphate, and 800 µg/mL G418. Cells were kindly provided by Dr. D. Keppler (German Cancer Research Centre, Heidelberg, Germany).
# (§3) Inhibition of OATP1B1 and OATP1B3 was analysed by flow cytometric uptake of the fluorescent 8-FcA as described previously using HEK-OATP1B1, OATP1B3, and HEK293-VC G418 (as a control). […] Subsequently, cells were washed once with 1 mL ice-cold incubation medium and resuspended in 500 µL incubation medium and kept on ice until flow cytometry. Intracellular fluorescence was analysed in a Becton Dickinson LSRII flow cytometer (Becton Dickinson, Heidelberg, Germany) with a solid state coherent sapphire blue laser and a 530 bandpass filter for 8-FcA.
# (§4) In each sample 30,000 cells were counted. Cell debris was eliminated by gating the viable cells in the forward versus side scatter. […] Each experiment was performed at least in triplicate.
# [6] = test system: ABCG2; assay: Induction assay, mRNA by real-time RT-PCR in LS180 cells: ABCG2; format: cell-based, human; conditions: 0.1-5 µM, four days
# Description: as §1, with “After harvesting, cells were splitted for RNA and protein extraction.” left out
# (§5) RNA was isolated using the RNeasy Mini-Kit and cDNA was synthesised with the RevertAid™ H Minus First Strand cDNA Synthesis Kit according to the manufacturer’s instructions. mRNA expression was quantified by real-time RT-PCR with the LightCycler® 480 (Roche Applied Science, Mannheim, Germany) as described previously. […] Data were evaluated by calibrator-normalised relative quantification with efficiency correction using the LightCycler® 480 software version 1.5 (Roche Applied Science, Mannheim, Germany). The software calculated the relative amount of the target gene and the reference gene (G6PDH) based on the crossing points. Results were expressed as the target/reference ratio divided by the target/reference ratio of the calibrator. […]
# [7] = test system: ABCC1; assay: Induction assay, mRNA by real-time RT-PCR in LS180 cells: ABCC1; format: cell-based, human; conditions: 0.1-5 µM, four days
# Description: as §1, with “After harvesting, cells were splitted for RNA and protein extraction.” left out
# as §5
# [8] = test system: UGT2B7; assay: Induction assay, mRNA by real-time RT-PCR in LS180 cells: UGT2B7; format: cell-based, human; conditions: four days, at higher concentrations
# Description: as §1, with “After harvesting, cells were splitted for RNA and protein extraction.” left out
# as §5
# [9] = test system: NR1I2; assay: Induction assay, mRNA by real-time RT-PCR in LS180 cells: NR1I2; format: cell-based, human; conditions: four days, at higher concentrations
# Description: as §1, with “After harvesting, cells were splitted for RNA and protein extraction.” left out
# as §5
# [10] = molecular target: T4, CYP2C19 (Homo sapiens, UniProt P33261); assay: CYP2C19/CEC High Throughput Inhibitor Screening Kit; format: biochemical
# T4 construct: purchased Becton Dickinson Biosciences, Heidelberg, Germany
# Description: (§6) Inhibition studies were performed with the CYP2D6/AMMC, the CYP2C19/CEC, and the CYP3A4/BFC High Throughput Inhibitor Screening Kit (Becton Dickinson Biosciences, Heidelberg, Germany) according to the manufacturer’s instructions. The Screening Kits contain the respective recombinant CYP and fluorogenic substrates, which are blocked dyes yielding minimal fluorescence signal until cleaved by the enzyme. […] Eight concentrations (9 nM–20 µM) were tested and the experiment was conducted in triplicate.
# [11] = test system: ABCC2; assay: Induction assay, mRNA by real-time RT-PCR in LS180 cells: ABCC2; format: cell-based, human; conditions: four days, at higher concentrations
# Description: as §1, with “After harvesting, cells were splitted for RNA and protein extraction.” left out
# as §5
# [12] = Stock solution in DMSO (highest possible solution); format: physicochemical
# [13] = test system: CYP2C19; assay: Induction assay, mRNA by real-time RT-PCR in LS180 cells: CYP2C19; format: cell-based, human; conditions: 0.1-5 µM, four days
# Description: as §1, with “After harvesting, cells were splitted for RNA and protein extraction.” left out
# as §5
# [14] = test system: ABCC3; assay: Induction assay, mRNA by real-time RT-PCR in LS180 cells: ABCC3; format: cell-based, human; conditions: 0.1-5 µM, four days
# Description: as §1, with “After harvesting, cells were splitted for RNA and protein extraction.” left out
# as §5
# [15] = Growth inhibition assay in MDCKII-BCRP cells; format: cell-based, canine; conditions: dog
# [16] = test system: SLCO1B1; assay: Induction assay, mRNA by real-time RT-PCR in LS180 cells: SLCO1B1; format: cell-based, human; conditions: four days, at higher concentrations
# Description: as §1, with “After harvesting, cells were splitted for RNA and protein extraction.” left out
# as §5
# [17] = molecular target: CYP3A4 (Homo sapiens, UniProt P08684); assay: in vitro
# Description: as §6
# [18] = test system: UGT1A3; assay: Induction assay, mRNA by real-time RT-PCR in LS180 cells: UGT1A3; format: cell-based, human; conditions: four days, at higher concentrations
# Description: as §1, with “After harvesting, cells were splitted for RNA and protein extraction.” left out
# as §5
# [19] = test system: CYP3A4; assay: Induction assay, mRNA by real-time RT-PCR in LS180 cells: CYP3A4; format: cell-based, human; conditions: 0.1-5 µM, four days
# Description: as §1, with “After harvesting, cells were splitted for RNA and protein extraction.” left out
# as §5
# [20] = Growth inhibition assay in MDCKII-MDR1 cells; format: cell-based, canine; conditions: dog
# [21] = molecular target: T5, AhR (Homo sapiens, UniProt P35869); assay: AhR reporter gene assay in AZ-AhR cells; format: cell-based; conditions: 24 h, luciferase reporter, read-out: EC50 activation of AhR activity
# T5 construct: endogenous in cells; host or cells: AZ-AhR (HepG2)
# Description: Human hepatoma HepG2 cells stably transfected with a construct containing several AhR binding sites upstream of a luciferase reporter gene were used for the AhR reporter gene assays as described previously.
# In total, 60,000 AZ-AhR cells were seeded into each well of 96-well plates with clear bottom and clear lid for luminometry. […] The assay was performed with the Steady-Glo™ Luciferase Assay System according to the manufacturer’s instructions. Drug-induced increases of AhR receptor activity were normalised to activity of non-drug treated controls set to 1 (=100%).
# [22] = test system: LS180 cells; assay: Growth inhibition assay (crystal violet staining) in LS180 cells; format: cell-based; conditions: Homo sapiens, 48 h, read-out: IC20 for proliferation inhibition
# Description: The human colon adenocarcinoma cell line LS180 (available at ATCC, Manassas, VA, USA) was used for induction experiments as a surrogate for the intestine being a major site of drug interactions and being an ideal model for investigating pregnane X receptor (PXR) and aryl hydrocarbon receptor (AhR) mediated induction. Cells were cultured under standard cell culture conditions with Dulbecco’s Modified Eagle’s Medium (DMEM) supplemented with 10% fetal calf serum, 2 mM glutamine, 100 U/mL penicillin, 100 µg/mL streptomycin sulphate, and 0.1 mM nonessential amino acids.
# Growth inhibition assays in LS180 cells were conducted to determine suitable maximum concentrations for the induction assay without profound antiproliferative effects. Proliferation was quantified by crystal violet staining as described previously. […] Absorption was measured at 555 nm excitation. Proliferation was expressed as proliferation index, which was calculated as the absorption intensity of the test well in percentage points relative to zero proliferation (absorption of wells containing only medium set to 0%) and native proliferation (absorption intensity of untreated control cells set to 100%). […] Concentration-response curves and IC20 values were calculated by GraphPad Prism version 5.02 (GraphPad Software Inc., La Jolla, CA, USA) according to a sigmoid Emax model.
# [23] = molecular target: T1, OATP1B3; assay: OATP inhibition assay (8-FcA flow cytometry uptake assay) in HEK-OATP1B3 cells; format: cell-based; conditions: 8-fluorescein-cAMP uptake
# Description: as §2, §3, §4
# [24] = test system: SLCO2B1; assay: Induction assay, mRNA by real-time RT-PCR in LS180 cells: SLCO2B1; format: cell-based, human; conditions: four days, at higher concentrations
# Description: as §1, with “After harvesting, cells were splitted for RNA and protein extraction.” left out
# as §5
# [25] = test system: CYP1A1; assay: Induction assay, mRNA by real-time RT-PCR in LS180 cells: CYP1A1; format: cell-based, human
# Description: as §1, with “After harvesting, cells were splitted for RNA and protein extraction.” left out
# as §5
# [26] = test system: MDCKII; assay: Growth inhibition assay in MDCKII cells; format: cell-based, canine; conditions: Canis lupus familiaris, MDCK-II; MDCKII parental cells
# [27] = test system: ABCB1; assay: Induction assay, mRNA by real-time RT-PCR in LS180 cells: ABCB1; format: cell-based, human; conditions: four days, at higher concentrations
# Description: as §1, with “After harvesting, cells were splitted for RNA and protein extraction.” left out
# as §5
# [28] = test system: CYP1A2; assay: Induction assay, mRNA by real-time RT-PCR in LS180 cells: CYP1A2; format: cell-based, human
# Description: as §1, with “After harvesting, cells were splitted for RNA and protein extraction.” left out
# as §5
# [29] = molecular target: T6, CYP2D6 (Homo sapiens, UniProt P10635); assay: CYP2D6/AMMC High Throughput Inhibitor Screening Kit; format: biochemical; conditions: tested up to 20 µM
# T6 construct: purchased Becton Dickinson Biosciences, Heidelberg, Germany
# Description: as §6
# T1 sequence (Q9NPD5 whole entry): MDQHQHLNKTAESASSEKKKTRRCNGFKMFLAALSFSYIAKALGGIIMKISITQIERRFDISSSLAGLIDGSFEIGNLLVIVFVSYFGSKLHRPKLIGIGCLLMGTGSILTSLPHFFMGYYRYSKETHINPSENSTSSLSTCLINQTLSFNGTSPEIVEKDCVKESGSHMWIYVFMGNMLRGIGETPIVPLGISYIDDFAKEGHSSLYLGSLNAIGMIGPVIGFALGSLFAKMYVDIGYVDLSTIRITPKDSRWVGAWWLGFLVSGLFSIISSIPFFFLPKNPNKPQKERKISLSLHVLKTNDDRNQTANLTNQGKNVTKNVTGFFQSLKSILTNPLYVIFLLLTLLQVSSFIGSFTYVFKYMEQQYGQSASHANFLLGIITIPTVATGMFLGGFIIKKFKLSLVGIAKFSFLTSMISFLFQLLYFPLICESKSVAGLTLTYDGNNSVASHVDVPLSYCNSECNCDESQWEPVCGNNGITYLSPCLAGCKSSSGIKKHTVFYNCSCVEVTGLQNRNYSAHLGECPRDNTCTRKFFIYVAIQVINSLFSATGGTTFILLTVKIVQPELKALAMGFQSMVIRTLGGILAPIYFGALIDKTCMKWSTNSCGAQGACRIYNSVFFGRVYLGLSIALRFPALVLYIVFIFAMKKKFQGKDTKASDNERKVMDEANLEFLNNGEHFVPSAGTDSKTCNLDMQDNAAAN
# T2 sequence (Q9Y6L6 whole entry): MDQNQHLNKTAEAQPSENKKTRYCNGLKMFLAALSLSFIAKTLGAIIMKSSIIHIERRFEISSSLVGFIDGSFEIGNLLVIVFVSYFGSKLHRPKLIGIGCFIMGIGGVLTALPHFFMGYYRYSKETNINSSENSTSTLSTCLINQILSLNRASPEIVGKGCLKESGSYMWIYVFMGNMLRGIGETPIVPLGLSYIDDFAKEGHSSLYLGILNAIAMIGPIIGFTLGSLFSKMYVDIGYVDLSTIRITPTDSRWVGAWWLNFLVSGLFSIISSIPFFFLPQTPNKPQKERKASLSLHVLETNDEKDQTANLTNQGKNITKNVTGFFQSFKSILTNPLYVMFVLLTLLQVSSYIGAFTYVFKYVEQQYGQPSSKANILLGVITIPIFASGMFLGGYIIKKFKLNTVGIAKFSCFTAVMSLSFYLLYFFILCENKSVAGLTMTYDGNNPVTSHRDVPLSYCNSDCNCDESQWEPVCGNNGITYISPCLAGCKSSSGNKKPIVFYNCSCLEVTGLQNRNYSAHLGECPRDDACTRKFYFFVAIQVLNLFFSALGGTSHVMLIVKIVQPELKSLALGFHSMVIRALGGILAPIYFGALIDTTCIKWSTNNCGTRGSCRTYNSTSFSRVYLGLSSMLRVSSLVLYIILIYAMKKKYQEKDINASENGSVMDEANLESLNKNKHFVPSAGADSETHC
# T4 sequence (P33261 whole entry): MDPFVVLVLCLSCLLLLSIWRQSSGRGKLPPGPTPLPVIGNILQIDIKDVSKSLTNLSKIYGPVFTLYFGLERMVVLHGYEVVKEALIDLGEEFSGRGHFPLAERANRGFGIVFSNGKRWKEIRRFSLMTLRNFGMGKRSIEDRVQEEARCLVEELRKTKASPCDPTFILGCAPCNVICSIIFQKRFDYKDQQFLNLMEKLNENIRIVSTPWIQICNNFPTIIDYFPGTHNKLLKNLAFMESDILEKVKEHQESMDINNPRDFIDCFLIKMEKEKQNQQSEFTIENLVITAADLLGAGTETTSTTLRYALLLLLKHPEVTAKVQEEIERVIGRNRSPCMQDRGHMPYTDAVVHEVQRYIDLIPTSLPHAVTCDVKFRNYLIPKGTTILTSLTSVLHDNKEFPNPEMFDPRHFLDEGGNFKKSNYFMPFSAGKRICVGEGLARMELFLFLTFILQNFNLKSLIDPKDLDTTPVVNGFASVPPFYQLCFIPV
# T5 sequence (P35869 11-848): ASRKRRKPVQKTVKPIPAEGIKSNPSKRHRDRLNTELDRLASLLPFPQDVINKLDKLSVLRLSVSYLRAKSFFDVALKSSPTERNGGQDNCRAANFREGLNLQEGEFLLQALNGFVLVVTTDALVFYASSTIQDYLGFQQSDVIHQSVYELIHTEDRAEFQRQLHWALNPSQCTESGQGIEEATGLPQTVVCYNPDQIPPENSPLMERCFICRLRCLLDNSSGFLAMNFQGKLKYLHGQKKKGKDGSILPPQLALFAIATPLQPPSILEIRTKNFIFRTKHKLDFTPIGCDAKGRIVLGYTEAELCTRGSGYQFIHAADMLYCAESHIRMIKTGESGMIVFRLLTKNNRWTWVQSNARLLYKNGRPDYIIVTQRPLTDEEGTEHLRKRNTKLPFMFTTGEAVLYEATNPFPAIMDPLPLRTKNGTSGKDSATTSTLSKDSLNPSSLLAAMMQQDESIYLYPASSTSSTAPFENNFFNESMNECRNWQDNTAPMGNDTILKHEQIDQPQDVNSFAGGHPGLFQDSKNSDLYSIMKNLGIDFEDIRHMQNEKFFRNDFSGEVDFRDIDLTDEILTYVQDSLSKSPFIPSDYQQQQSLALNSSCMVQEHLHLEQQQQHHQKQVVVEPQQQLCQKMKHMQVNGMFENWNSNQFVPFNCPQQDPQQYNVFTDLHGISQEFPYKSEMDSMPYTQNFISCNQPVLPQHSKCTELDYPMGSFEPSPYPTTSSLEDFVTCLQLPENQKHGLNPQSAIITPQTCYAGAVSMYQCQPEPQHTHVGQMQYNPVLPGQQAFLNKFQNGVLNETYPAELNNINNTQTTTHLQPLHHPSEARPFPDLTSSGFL
# T3 sequence (Q9UNQ0 whole entry): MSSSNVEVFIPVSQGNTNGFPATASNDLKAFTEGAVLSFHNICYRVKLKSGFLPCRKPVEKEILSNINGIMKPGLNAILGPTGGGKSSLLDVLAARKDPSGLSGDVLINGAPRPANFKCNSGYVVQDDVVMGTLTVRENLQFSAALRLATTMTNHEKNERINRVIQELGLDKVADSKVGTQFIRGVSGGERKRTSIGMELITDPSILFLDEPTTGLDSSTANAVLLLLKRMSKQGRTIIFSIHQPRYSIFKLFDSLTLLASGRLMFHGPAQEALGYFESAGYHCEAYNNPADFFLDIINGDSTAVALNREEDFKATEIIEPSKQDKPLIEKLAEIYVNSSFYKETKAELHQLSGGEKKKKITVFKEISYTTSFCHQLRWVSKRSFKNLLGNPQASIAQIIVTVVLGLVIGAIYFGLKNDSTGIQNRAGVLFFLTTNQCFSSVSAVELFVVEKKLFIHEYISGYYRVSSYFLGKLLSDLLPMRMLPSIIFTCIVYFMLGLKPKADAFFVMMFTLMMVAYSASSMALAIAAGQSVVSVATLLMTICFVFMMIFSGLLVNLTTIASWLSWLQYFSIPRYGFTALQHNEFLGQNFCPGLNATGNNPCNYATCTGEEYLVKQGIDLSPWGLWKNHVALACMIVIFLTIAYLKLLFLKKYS
# Sequence of CYP3A4 (Homo sapiens, UniProt P08684) (P08684 whole entry): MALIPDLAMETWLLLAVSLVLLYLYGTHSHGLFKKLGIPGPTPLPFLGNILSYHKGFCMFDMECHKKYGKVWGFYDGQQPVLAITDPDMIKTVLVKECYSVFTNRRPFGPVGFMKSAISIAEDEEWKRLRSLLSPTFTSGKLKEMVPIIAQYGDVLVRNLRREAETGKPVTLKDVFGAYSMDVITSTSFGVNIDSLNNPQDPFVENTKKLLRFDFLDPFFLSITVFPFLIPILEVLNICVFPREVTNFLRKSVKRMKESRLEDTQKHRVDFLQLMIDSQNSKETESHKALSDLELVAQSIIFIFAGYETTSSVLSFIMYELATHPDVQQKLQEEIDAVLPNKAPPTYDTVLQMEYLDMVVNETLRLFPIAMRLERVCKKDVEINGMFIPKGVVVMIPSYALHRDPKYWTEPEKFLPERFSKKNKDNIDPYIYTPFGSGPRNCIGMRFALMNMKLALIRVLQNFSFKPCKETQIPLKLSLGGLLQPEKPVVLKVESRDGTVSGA
# T6 sequence (P10635 whole entry): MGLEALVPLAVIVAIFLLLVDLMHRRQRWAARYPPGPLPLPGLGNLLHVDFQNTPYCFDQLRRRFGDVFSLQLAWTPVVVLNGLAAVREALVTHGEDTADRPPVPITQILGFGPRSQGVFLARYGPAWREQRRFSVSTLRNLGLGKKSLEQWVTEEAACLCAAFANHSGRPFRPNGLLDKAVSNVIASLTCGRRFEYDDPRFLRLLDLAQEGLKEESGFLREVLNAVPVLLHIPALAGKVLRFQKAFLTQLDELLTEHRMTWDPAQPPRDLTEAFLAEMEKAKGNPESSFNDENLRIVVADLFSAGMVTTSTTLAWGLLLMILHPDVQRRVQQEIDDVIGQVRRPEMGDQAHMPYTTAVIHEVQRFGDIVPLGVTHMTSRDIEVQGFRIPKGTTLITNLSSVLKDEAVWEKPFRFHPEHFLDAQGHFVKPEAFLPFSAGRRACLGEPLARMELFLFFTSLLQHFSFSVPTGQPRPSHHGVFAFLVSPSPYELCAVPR
smiles,measurement,setting,value
CO[C@H]1/C=C/O[C@@]2(C)Oc3c(C)c(O)c4c(O)c(c(/C=N/N5CCN(C)CC5)c(O)c4c3C2=O)NC(=O)/C(C)=C\C=C\[C@H](C)[C@H](O)[C@@H](C)[C@@H](O)[C@@H](C)[C@H](OC(C)=O)[C@@H]1C [Rifampicin],IC50,[1],2.1 ± 1 µM
same,IC50,[2],2.4 ± 0.9 µM
COc1ccc2c3c([nH]c2c1)[C@H](C=C(C)C)N1C(=O)[C@@H]2CCCN2C(=O)[C@@H]1C3 [Fumitremorgin C],IC50,[3],0.7 ± 0.3 µM
CN1CCN(c2ccc3nc(-c4c(N)c5c(F)cccc5[nH]c4=O)[nH]c3c2)CC1 [Dovitinib],P-gp protein expression (western blot),[4]; at 0.1 and 0.5 µM,small increase in P-gp expression
same,P-gp protein expression (western blot),[4]; at higher dovitinib concentrations,suppression of P-gp protein expression
same,IC50,[5],76.5 ± 28.9 µM
same,mRNA expression of ABCG2,[6],induced
same,mRNA expression of ABCC1,[7],no influence
same,mRNA expression of UGT2B7,[8],reduced
same,mRNA expression of NR1I2,[9],reduced
same,inhibition at 20 µM,"[10]; human, recombinant CYP2C19, probe CEC, at 20 µM",~50%
same,mRNA expression of ABCC2,[11],reduced
same,"stock solution, highest possible solution",[12],10 mM
same,mRNA expression of CYP2C19,[13],no influence
same,mRNA expression of ABCC3,[14],induced
same,IC50 at 48 h,[15],21.4 ± 3.6 µM
same,mRNA expression of SLCO1B1,[16],reduced
same,inhibition at 20 µM,[17],~30%
same,mRNA expression of UGT1A3,[18],reduced
same,mRNA expression of CYP3A4,[19],no influence
same,IC50 at 48 h,[20],18.3 ± 4.1 µM
same,EC50,[21],0.609 ± 0.282 µM
same,IC20,[22],4.9 ± 2.5 µM
same,IC50,[23],> 100 µM
same,mRNA expression of SLCO2B1,[24],reduced
same,mRNA expression of CYP1A1,"[25]; 0.1-5 µM, four days",induced
same,induction of CYP1A1 (mRNA),[25]; Figure 3,approximately 10 fold
same,IC50,[26],20 ± 2.9 µM
same,mRNA expression of ABCB1,[27],reduced
same,mRNA expression of CYP1A2,"[28]; 0.1-5 µM, four days",induced
same,induction of CYP1A2 (mRNA),[28]; Figure 3,approximately 10 fold
same,CYP2D6 inhibition,[29],not inhibited at all
"COc1ccc2[nH]c([S+]([O-])Cc3ncc(C)c(OC)c3C)nc2c1 (stereo not drawn) [omeprazole, Omeprazole]",IC50,"[10]; control compound, read-out: IC50 CYP2C19 inhibition",0.8 ± 0.2 µM
